Test results reported in ChEMBL document CHEMBL2440096, “Synthesis, structure analysis, antitumor evaluation and 3D-QSAR studies of 3,6-disubstituted-dihydro-1,2,4,5-tetrazine derivatives” (Bioorg Med Chem Lett, 2013).

Assays:
[1] = test system: A549; experiment: Antiproliferative activity against human A549 cells by SRB assay; format: functional, cell-based
[2] = test system: P388; experiment: Antiproliferative activity against mouse P388 cells by MTT assay; format: functional, cell-based

IC50 ([1]; read-out: IC50) [µM] | IC50 ([1]; read-out: pIC50 (converted)) [µM] | IC50 [2] [µM] | Structure (SMILES)
0.035 | 0.035 |  | COc1cc(NC(=O)N2N=C(C)N(C(=O)Nc3cc(OC)cc(OC)c3)N=C2C)cc(OC)c1
26.6 |  | 11.2 | CCOC(=O)N1C(c2ccccc2)=NN=C(c2ccccc2)N1C(=O)OCC
> 100 |  | > 100 | COC(=O)N1C(c2ccccc2)=NN=C(c2ccccc2)N1C(=O)OC
19.9 | 19.9 |  | c1ccc(C2=NNC(c3ccccc3)=NN2)cc1
0.574 | 0.574 |  | CC1=NN(C(=O)Nc2cccc(C)c2)C(C)=NN1C(=O)Nc1cccc(C)c1
5.42 | 5.42 |  | CCCC1=NN(C(=O)Nc2ccccc2)C(CCC)=NN1C(=O)Nc1ccccc1
1.1 | 1.1 |  | CCCC1=NN(C(=O)Nc2cccc(Cl)c2)C(CCC)=NN1C(=O)Nc1cccc(Cl)c1
3.66 | 3.66 |  | CC1=NN(C(=O)Nc2cc(C)cc(C)c2)C(C)=NN1C(=O)Nc1cc(C)cc(C)c1
2.22 | 2.22 |  | CC(C)C(=O)N1N=C(c2ccccc2)NN=C1c1ccccc1
8.53 | 8.53 |  | O=C(CCl)N1N=C(c2ccc(C(F)(F)F)cc2)NN=C1c1ccc(C(F)(F)F)cc1
9.56 | 9.55 |  | CCC(=O)N1N=C(c2ccc(C(F)(F)F)cc2)NN=C1c1ccc(C(F)(F)F)cc1
44.7 | 44.7 |  | CC(=O)N1N=C(c2ccccc2)NN=C1c1ccccc1
1.85 | 1.85 |  | O=C(CCl)N1N=C(c2ccccc2)NN=C1c1ccccc1
48.3 | 48.3 |  | CCC(=O)N1N=C(c2ccccc2)NN=C1c1ccccc1
13.2 | 13.2 |  | Oc1ccc(Cl)cc1C1=NN=C(c2cc(Cl)ccc2O)NN1
51.8 | 51.8 |  | Clc1ccc(C2=NN=C(c3ccc(Cl)cc3)NN2)cc1
68.5 | 68.5 |  | CCCCN1N=C(C)N(CCCC)N=C1C
5.55 | 5.55 |  | CC1=NN(C(=O)Nc2cccc(O)c2)C(C)=NN1C(=O)Nc1cccc(O)c1
57.3 | 57.3 |  | CC1=NN(C(=O)Nc2ccccc2O)C(C)=NN1C(=O)Nc1ccccc1O
44.9 | 44.9 |  | COc1ccccc1NC(=O)N1N=C(c2ccccc2)NN=C1c1ccccc1
89 | 88.9 |  | COC(=O)N1N=C(c2cccc(Cl)c2)N(C(=O)OC)N=C1c1cccc(Cl)c1
83.6 | 83.6 |  | COC(=O)N1N=C(c2cccc([N+](=O)[O-])c2)N(C(=O)OC)N=C1c1cccc([N+](=O)[O-])c1
76.7 | 76.7 |  | COC(=O)N1N=C(c2ccc(Cl)cc2)N(C(=O)OC)N=C1c1ccc(Cl)cc1
79.3 | 79.3 |  | COC(=O)N1N=C(c2ccc(Cl)cc2Cl)N(C(=O)OC)N=C1c1ccc(Cl)cc1Cl
74.1 | 74.1 |  | O=S(=O)(c1ccccc1)N1N=C(c2ccccc2)N(S(=O)(=O)c2ccccc2)N=C1c1ccccc1

IC50 ([1]; read-out: IC50) [µM] | IC50 ([1]; read-out: pIC50 (converted)) [µM] | IC50 [2] [µM] | Structure (SMILES)
51.9 | 51.9 |  | O=S(=O)(c1ccccc1)N1N=C(c2ccc(Cl)cc2)N(S(=O)(=O)c2ccccc2)N=C1c1ccc(Cl)cc1
58.8 | 58.7 |  | COc1ccc(C2=NN(S(=O)(=O)c3ccccc3)C(c3ccc(OC)cc3)=NN2S(=O)(=O)c2ccccc2)cc1
85.8 | 85.7 |  | Cc1ccc(S(=O)(=O)N2N=C(c3ccccc3)N(S(=O)(=O)c3ccc(C)cc3)N=C2c2ccccc2)cc1
51.8 | 51.8 |  | Clc1ccc(CC2=NNC(Cc3ccc(Cl)cc3)=NN2)cc1
> 100 |  | > 100 | CCCOC(=O)N1C(c2ccc(C(F)(F)F)cc2)=NN=C(c2ccc(C(F)(F)F)cc2)N1C(=O)OCCC
14.5 |  | 26.6 | O=C(Oc1ccccc1)N1C(c2ccc(C(F)(F)F)cc2)=NN=C(c2ccc(C(F)(F)F)cc2)N1C(=O)Oc1ccccc1
> 100 |  | > 100 | O=C(OCC1CCCCC1)N1C(c2ccc(C(F)(F)F)cc2)=NN=C(c2ccc(C(F)(F)F)cc2)N1C(=O)OCC1CCCCC1
39.5 | 39.5 | > 100 | COC(=O)N1N=C(c2ccccc2)NN=C1c1ccccc1
> 100 |  | > 100 | CCOC(=O)N1N=C(c2ccccc2)NN=C1c1ccccc1
> 100 |  | > 100 | CCCOC(=O)N1N=C(c2ccccc2)NN=C1c1ccccc1
40.8 | 40.8 | 11.8 | CCCCCOC(=O)N1N=C(c2ccccc2)NN=C1c1ccccc1
44.2 | 44.2 | 24.6 | CC(C)CCOC(=O)N1N=C(c2ccccc2)NN=C1c1ccccc1
101 |  | > 100 | O=C(OCCCl)N1N=C(c2ccccc2)NN=C1c1ccccc1
0.575 | 0.575 | 24.7 | CCOC(=O)N1N=C(c2ccc(C(F)(F)F)cc2)NN=C1c1ccc(C(F)(F)F)cc1
49.4 | 49.4 | 34.9 | COC(=O)N1N=C(c2ccc(Cl)cc2)NN=C1c1ccc(Cl)cc1
> 100 |  | > 100 | O=C(OCC1CCCCC1)N1C(c2ccccc2)=NN=C(c2ccccc2)N1C(=O)OCC1CCCCC1
2.08 |  | 30.4 | COC(=O)N1C(c2ccc(C(F)(F)F)cc2)=NN=C(c2ccc(C(F)(F)F)cc2)N1C(=O)OC
51.1 |  | > 100 | CCOC(=O)N1C(c2ccc(C(F)(F)F)cc2)=NN=C(c2ccc(C(F)(F)F)cc2)N1C(=O)OCC
1 | 1 |  | CCCC1=NN(C(=O)Nc2cccc(C)c2)C(CCC)=NN1C(=O)Nc1cccc(C)c1
0.639 | 0.64 |  | CCC1=NN(C(=O)Nc2cccc(C)c2)C(CC)=NN1C(=O)Nc1cccc(C)c1
> 100 |  | 11.7 | CCCOC(=O)N1C(c2ccccc2)=NN=C(c2ccccc2)N1C(=O)OCCC
31.6 | 31.6 |  | CC(C)C(=O)N1N=C(c2ccc(C(F)(F)F)cc2)NN=C1c1ccc(C(F)(F)F)cc1
9.76 | 9.75 |  | CC(=O)N1N=C(c2ccc(C(F)(F)F)cc2)NN=C1c1ccc(C(F)(F)F)cc1
40 | 40 |  | FC(F)(F)c1ccc(C2=NN=C(c3ccc(C(F)(F)F)cc3)NN2)cc1
